Patent publication US20120276208A1, “ACUTE COGNITIVE AND MOOD EFFECTS OF PLANT POLYSACCHARIDES IN ADULT HUMAN SUBJECTS” (UNIVERSITY OF SOUTH AUSTRALIA, priority 2011, published 2012)

What was measured:
[1] = tested on: healthy middle-aged men and women; assay: Rey Auditory-Verbal Learning Test (RAVLT), learning and memory; type: in vivo, human; settings: 4 g oral single dose; mean (SD)
Procedure: Procedure: Each participant attended the research facility on a single day for a period of 3.5 hours during which they completed 2 testing sessions, 1 baseline test and 1 post-treatment test. All testing took place between 08:00-12:00 and 13:00-18:00. On testing days, participants abstained from consuming any stimulants (i.e., tea, coffee, other caffeine containing products) for 2 hours before their visit. All volunteers were fasted for 2 hours before their visit. Each study day comprised of a practice module, a pre-treatment baseline testing session on the mood and cognitive measures, this was immediately followed by a pre-treatment blood glucose measurement, and administration of treatment. Participants were allocated, using a random number generator randomization code, to one of three treatment conditions: sucrose (icing sugar), placebo (rice flour) and plant saccharides (Ambrotose®Complex). Given the different densities of the three supplement conditions, each treatment was weighed and measured with scoop amounts to provide equated 4 g doses. The supplement was delivered to each participant on a tablespoon with 100 ml of water. Each participant was instructed by the inventors to carefully consume the powder, without breathing in or out over it, by putting it in their mouth and washing it down with the water provided within 5 minutes. Additional water was provided on request. Participants were then instructed to rest for 30 minutes to allow for absorption. Following the 30 minute absorption time, a finger-capillary blood glucose measurement was taken. The post treatment testing session then commenced with alternate forms of the RAVLT and Cognitive demand battery. Following completion of the testing session, a final blood glucose measurement was taken. […] Learning and Memory: The Rey Auditory-Verbal Learning Test (RAVLT) was used to assess immediate recall, delayed recall, learning and recognition memory. The examiner reads aloud 15 nouns (list A) over five trials and after each trial, participants are asked to recall, in any order, as many of the 15 words as possible. Scores for the 5 trials are summed to produce a measure of immediate recall, the difference between trial 5 and 1 is used as a measure of learning. After a sixth trial consisting of 15 different words (list B) participants are again required to recall the words that were presented in list A (trial 7), and then again after an interval of 60 minutes (trial 8). The scores from trials 7 and 8 are used to produce a measure of delayed recall, the difference between the words recalled in trials 8 and 7 is used as a measure of forgetting, the difference between trial 7 and trial 5 is used as a score of interference. After trial 8, participants are presented with a sheet of 50 words containing the words from lists A and B among 20 distracter words. Participants are asked to recognize the words from lists A and B and indicate the list they came from. Each word correctly identified is awarded one point producing a measure of recognition. Statistical Analysis: The primary outcomes were memory performance, mood and performance on the Cognitive Demand Battery (CDB) and the subjective ratings of mental fatigue. All data were analyzed using SPSS 17 statistical package as “change from pre dose baseline scores', using Analysis of Variance (ANOVA). To test for chance baseline differences which may have skewed change-from-baseline scores, prior to the primary statistical analysis, one-way ANOVA's with Bonferroni correction, were run all on all baseline demographics, general mood and well-being measures, and all pre-dose baseline measures to determine any potential covariates in outcomes.

[2] = tested on: healthy middle-aged men and women; assay: Cognitive Demand Battery: Serial Sevens subtraction task; type: in vivo, human; settings: 4 g oral; at 20 min of battery; vs placebo
Procedure: Procedure: Each participant attended the research facility on a single day for a period of 3.5 hours during which they completed 2 testing sessions, 1 baseline test and 1 post-treatment test. All testing took place between 08:00-12:00 and 13:00-18:00. On testing days, participants abstained from consuming any stimulants (i.e., tea, coffee, other caffeine containing products) for 2 hours before their visit. All volunteers were fasted for 2 hours before their visit. Each study day comprised of a practice module, a pre-treatment baseline testing session on the mood and cognitive measures, this was immediately followed by a pre-treatment blood glucose measurement, and administration of treatment. Participants were allocated, using a random number generator randomization code, to one of three treatment conditions: sucrose (icing sugar), placebo (rice flour) and plant saccharides (Ambrotose®Complex). Given the different densities of the three supplement conditions, each treatment was weighed and measured with scoop amounts to provide equated 4 g doses. The supplement was delivered to each participant on a tablespoon with 100 ml of water. […] All data were analyzed using SPSS 17 statistical package as “change from pre dose baseline scores', using Analysis of Variance (ANOVA). […]

SMILES: OC[C@H]1O[C@@](CO)(O[C@H]2O[C@H](CO)[C@@H](O)[C@H](O)[C@H]2O)[C@@H](O)[C@@H]1O [Sucrose, sucrose]
- RAVLT Forgetting (trial 8-trial7), post-dose change from baseline score [1]: −1.69 (3.06)
- RAVLT Interference (trial 7-trial 5), post-dose change from baseline score [1]: −1.34 (2.18)
- RAVLT Learning (trial 5-trial1), post-dose change from baseline score [1]: 0.07 (2.78)
- RAVLT Recog A, post-dose change from baseline score [1]: −2.38 (2.46)
- RAVLT Recog B, post-dose change from baseline score [1]: −3.38 (3.55)
- RAVLT Sum Immediate Recall, post-dose change from baseline score [1]: −1.88 (5.83)
- RAVLT Sum Recognition, post-dose change from baseline score [1]: −5.76 (4.91)
- RAVLT Sum delayed recall, post-dose change from baseline score [1]: −4.76 (4.18)
- RAVLT Trial 1, post-dose change from baseline score [1]: −0.26 (2.23)
- RAVLT Trial 2, post-dose change from baseline score [1]: −0.57 (2.13)
- RAVLT Trial 3, post-dose change from baseline score [1]: −0.42 (1.83)
- RAVLT Trial4, post-dose change from baseline score [1]: −0.42 (1.72)
- RAVLT Trial 5, post-dose change from baseline score [1]: −0.19 (1.72)
- RAVLT Trial 6 (List B), post-dose change from baseline score [1]: −0.84 (2.16)
- RAVLT Trial 7, post-dose change from baseline score [1]: −1.53 (2.37)
- RAVLT Trial 8, post-dose change from baseline score [1]: −3.23 (2.80)
- Serial 7s number of correct answers, pairwise comparison [2]: making significantly more correct responses than the placebo group (p=0.04)
